A short description of series [1]: 1H NMR kinetics of acid catalysed hydrolysis of TMOA in AcOH/AcONa buffers. It is filed as physicochemical. Here is the method: Five buffers with constant acetic acid (AcOH) concentration and different H^+ concentrations were made by varying the amount of sodium acetate (AcONa) added (see Table 1). As the ionic concentration of the solution has an impact on the rate constant of hydrolysis, sodium chloride was added to keep the ionic strength constant in all 5 buffers.
The reaction samples were prepared directly in 5 mm NMR tube by adding 15 μL of TMOA in 500 μL of acetone-d6. To start the reaction 100 μL of acetic acid/sodium acetate aqueous buffer was added. All chemicals were purchased at the highest level of purity from Sigma Aldrich. Acetone-D6 and TMOA were dried before each experiment by distilling from 3 Å molecular sieve under nitrogen. Sodium chloride and sodium acetate were dried by heating them at T=100° C. for 4 hours under vacuum.
A 300 MHz NMR spectrometer was used to follow the concentration of TMOA with time by acquiring nine sequential ^1H NMR spectra every 10 min (actual delay time=10.38 min). Presaturation solvent suppression technique was used to obscure the H2O signal. An external reference was used by adding to the NMR tube a sealed capillary tube with 3-(trimethylsilyl)-1-propanesulfonic acid sodium salt dissolved in D2O (concentration=0.1966 M).
The TMOA ^1H NMR spectrum consists of two singlets resonating at 3.15 and 1.33 ppm, assigned to the —OCH3 and —CH3 residues, respectively (integrating 3:1—FIG. 7). The relative peak area (RPA—proportional to concentration) was measured by comparing the —CH3 resonance with that of the external reference.
The approach adopted for determining kH+ and kHA, was to exploit the constancy of Ka (=1.75×10^−5 mol/L) whilst varying the numerators (i.e., [A^−] 2→0.1 and pH 5.07→3.74) and maintaining [HA] constant (i.e., 0.192 mol/L). As the overall rate of reaction (equation III) is a summation of both processes described by kH+ and kHA, the rate constant kobs is therefore proportional to the concentration of both associated and dissociated acids (equation IV). rate=kobs[R—C(OR)3] (III) kobs=kH+[H^+]+kHA[HA] (IV)
Given that [HA] is constant, expression IV becomes equivalent to that of a straight line and kH+ and kHA may be determined by plotting kobs vs [H^+]. To obtain kobs however, the rate equation integrated over time (Eq. V) must be used. In[R—C(OR)3]t—In[R—C(OR)3]0=−kobst (V)
^1H NMR spectroscopy is the technique of choice when studying processes which occur on this timescale. Our choice of HA was acetic acid (AcOH), and five buffered solutions with different H^+ concentration were prepared by varying the amount of sodium acetate (AcONa=A^−). For the study, we switched focus from the aldehyde derivative TEOF (5, Scheme 1) used for the proof of concept study to the faster reacting keto-derivative trimethyl orthoacetate (TMOA) 8, Scheme 2 where R=—CH3) for reasons of atom economy (20% lighter).
[H^+] may be plotted (FIG. 5) and a straight line fitted (y=35.464×+1.6×10^−3; R^2=0.993) from which values for the gradient of the slope and y-intercept afford kH+=35.5 min^−1 and, kHA=7.8×10^−3 min^−1 respectively. It is clear that the pathway catalysed by dissociated acid H^+ (specific acid catalysis—scheme 2) is approximately 4500 times faster than the pathway catalysed by undissociated AcOH, within the pH range studied here (3.7→5.0).

Series [2] is described as follows: GC measurement of hydrolysis of triethyl orthoformate by water in Jet A-1. It is filed as physicochemical. Here is the method:
The analyses were performed using an Agilent 5890 gas chromatograph equipped with a flame ionisation detector. The GC column used was of fused silica, HP-5MS, 30 m by 0.25 mm, with a helium flow rate of 1.5 mL/min. The temperature for the detector and injector was fixed at 250° C. The oven temperature used for the analysis was 80° C. for 4 minutes, then it was increased at 20° C./min to 240° C. and held for 2 minutes.
Jet A-1, obtained by Air BP (Batch number BIS/HAL/12/035K), was dried by storing it over 3 Å molecular sieve for at least 24 hours. Standards with different water concentrations were prepared by adding measured volumes of distilled water by SGE μL syringes to 20 ml of anhydrous Jet A-1, taking extra care to inject the water in the middle of the solvent. Each standard was prepared just before use and ultrasonicated for 5 minutes to ensure an equal distribution of water.
A reactant solution was prepared to enable a simple, one-step addition of all the necessary chemicals. […]
For each water standard, the relative peak area (RPA) of ethanol was calculated by dividing the ethanol peak area by the internal standard peak area. […]

The text below walks through data of patent US9802912B2, “Cyclic ortho ester fuel additive” (AIRBUS OPERATIONS LIMITED, priority 2013, dated 2017).

Turning to `COC(C)(OC)OC` [TMOA, trimethyl orthoacetate], the Kobs in series [1] ([AcOH]/[AcONa] 0.486, [H+] 8.51 × 10^−6 mol/L) is 0.0016 min⁻¹; in series [1] ([AcOH]/[AcONa] 1, [H+] 1.75 × 10^−5 mol/L) it was 0.0024 min⁻¹; in series [1] ([AcOH]/[AcONa] 2.918, [H+] 5.11 × 10^−5 mol/L), 0.0036 min⁻¹; in series [1] ([AcOH]/[AcONa] 4, [H+] 7.00 × 10^−5 mol/L), 0.0042 min⁻¹; in series [1] ([AcOH]/[AcONa] 10.378, [H+] 1.82 × 10^−4 mol/L), 0.008 min⁻¹. In addition, in series [1] (from y-intercept of kobs v. [H+], [HA] 0.192 mol/L), the “kHA (general acid catalysis, undissociated AcOH)” value came out at 0.0078 min⁻¹. Also, the “kH+ (specific acid catalysis)” value in series [1] (gradient of kobs v. [H+], pH 3.7-5.0) worked out at 35.5 min⁻¹. Moreover, in series [1] (pH 3.7-5.0), the “rate of pathway catalysed by H+ relative to pathway catalysed by undissociated AcOH” value is given as “approximately 4500 times”.
As for `CCOC(OCC)OCC` [compound 5, triethyl orthoformate], in series [2] (Jet A-1, methane sulfonic acid, 30 minutes), the “reaction with water, completion” value is 100%. In addition, in series [2] (Jet A-1, no added acid catalyst, after 2 days), the “reaction with water, complete” value is reported as 60-75%.
